From patent US20230348520A1, “COMPOUND COMPRISING BETA-NICOTINAMIDE MONONUCLEOTIDE OR PHARMACOLOGICALLY ACCEPTABLE SALT THEREOF, AND METHOD FOR EVALUATING QUALITY AND METHOD FOR ASSESSING ENZYMATIC REACTIVITY OF SAID COMPOUND” (ORIENTAL YEAST CO., LTD., priority 2020, published 2023)

Columns and labels:
HEK293 cells [1] = assay: Intracellular NAD content in culture cells (Test Example 5); assay type: cell-based; conditions: nonadherent HEK293 cells; 0.1 mM β-NMN; shake-cultured seven days without exchange of the medium; FIGS. 6A, 6B
Protocol: In order to evaluate biological activities of the β-NMN compounds of Production Example 1 and the β-NMN product 3, culture cells were cultured in a medium containing the β-NMN compound, to measure change in intracellular NAD.
The culture cells used were HEK293 cells that had been treated to be nonadherent. The medium used was FreeStyle™ 293 Expression Medium (obtained from Thermo Fisher Scientific).
First, the HEK293 cells, which had been treated to be nonadherent, were disseminated in the medium so as to have a concentration of 1×10^6 cells/mL. The resulting medium was dispensed into six 125 mL-flasks by 30 mL each. The flasks were supplemented with the β-NMN compounds of Production Example 1 and the β-NMN product 3 so as to have a final concentration of 0 or 0.1 mM. Without exchange of the medium, the cells were shake-cultured for seven days in a CO2 incubator at 37° C.
After shake-culturing for seven days, the cells and the culture supernatant were recovered for various analyses. […] Specifically, the recovered cells were weighed and were extracted with Extraction buffer attached to a kit, and the resulting extract was measured for NAD. The intracellular NAD content was calculated based on a calibration curve obtained by measuring NAD solutions of various concentrations.

HEK293 cells [2] = assay: Cytotoxicity rate from intra- and extracellular AST activities in culture cells (Test Example 5); assay type: cell-based; conditions: nonadherent HEK293 cells; 0.1 mM β-NMN; shake-cultured seven days without exchange of the medium; FIGS. 5A, 5B
[3] = molecular target: R-LDH5 (lactate dehydrogenase (LDH) 5, SEQ ID NO: 1, derived from skeletal muscle) (Oryctolagus cuniculus, UniProt P13491, L277I/T249S); assay: Evaluation of enzymatic reactivity with lactate dehydrogenase R-LDH5 (Test Examples 1 and 2); assay type: biochemical; conditions: 19 mM β-NMN in R1 reagent; R-LDH5 245 U/mL final; 37° C.; 340 nm; one unit = 0.1 mAbs change in absorbance per minute; average of three measurements
Description: The lactate dehydrogenase is preferably lactate dehydrogenase derived from mammalian skeletal muscle, and more preferably lactate dehydrogenase (LDH) 5 (hereinafter may be referred to as “R-LDHS”). The R-LDHS has an amino acid sequence as set forth in SEQ ID NO: 1, is composed of a tetramer of sub-units, and is derived from skeletal muscle. Other lactate dehydrogenases of any mammal can also be used, such as porcine lactate dehydrogenase (LDH) 1, human lactate dehydrogenase (LDH) 1, and human lactate dehydrogenase (LDH) 5. The LDH catalyzes dehydrogenation of lactic acid as a substrate, to convert the lactic acid to pyruvic acid. At this time, the β-NMN is converted to a reduced form of β-NMN (see FIG. 1).
In the present invention, the enzymatic reactivity refers to a value obtained through measurement using the following reagents and method.
(The purity of the β-NMN in a measurement sample is assumed to be 100%. Also, the β-NMN is dissolved in an 80 mM sodium carbonate solution in advance.)
The enzyme solution is prepared so that the LDH is to be 245 U/mL as a final concentration in a reaction liquid.
In the present invention, the activity unit (U) of the LDH is an activity unit measured by the human LDH measurement method according to IFCC when using NAD as a coenzyme.
An enzyme activity is measured using a 7180 type Hitachi automatic analyzer (obtained from Hitachi High-Tech Corporation). Measurement parameters are as follows.
Analysis method: Rate A Measurement wavelength (sub/main): 405 nm/340 nm Reaction duration: 10 minutes Photometric points: 20 to 24 Sample liquid (enzyme solution): 18 μL R1 reagent: 120 μL R2 reagent: 87 μL
18 μL of the enzyme solution and 120 μL of the R1 reagent are mixed. The resulting mixture is incubated at 37° C. for 4.5 minutes (photometric points 1 to 16), followed by addition of 87 μL of the R2 reagent, to initiate reaction (photometric point 17). From the absorbance of the measurement sample one to two minutes after initiation of the reaction (photometric points 20 to 24), the absorbance of water (blank) at the same photometric points is subtracted, to calculate a value of change in absorbance per minute (ΔmAbs/min). Regarding the activity unit (the unit of reactivity with the lactate dehydrogenase R-LDH5), 0.1 mAbs as the value of change in absorbance per minute is defined as one unit.
By the following method, the β-NMN compound of the present invention (Production Example 1) and β-NMN products 1 to 3 were measured for the enzymatic reactivity with R-LDHS (SEQ ID NO: 1). Note that, the measurement results are average values in the measurement performed three times.
(The purity of the β-NMN in a measurement sample was assumed to be 100%. Also, the β-NMN was dissolved in an 80 mM sodium carbonate solution in advance.)
The enzyme solution was prepared so that the R-LDH5 was to be 245 U/mL as a final concentration in a reaction liquid.
An enzyme activity was measured using a 7180 type Hitachi automatic analyzer (obtained from Hitachi High-Tech Corporation). Measurement parameters are as follows.
Analysis method: Rate A Measurement wavelength (sub/main): 405 nm/340 nm Reaction duration: 10 minutes Photometric points: 20 to 24 Sample liquid (enzyme solution): 18 μL
18 μL of the enzyme solution and 120 μL of the R1 reagent were mixed. The resulting mixture was incubated at 37° C. for 4.5 minutes (photometric points 1 to 16), followed by addition of 87 μL of the R2 reagent, to initiate reaction (photometric point 17). Measurements were taken for five minutes after initiation of the reaction. From the absorbance of the measurement sample at minute one to minute two after the initiation (photometric points 20 to 24), the absorbance of water (blank) at the same photometric points was subtracted, to calculate a value of change in absorbance per minute (ΔmAbs/min). Regarding the activity unit, 0.1 mAbs as the value of change in absorbance per minute was defined as one unit. […]

[4] = molecular target: human lactate dehydrogenase (LDH) 1 (SEQ ID NO: 2) (Homo sapiens, UniProt P07195); assay: Dependency of LDH activity value on β-NMN compound concentration, human LDH1 (Test Example 4); assay type: biochemical; conditions: human LDH1 45 U/mL; 0-200 mM β-NMN in R1 reagent; compared with Production Example 1; FIGS. 4D to 4F
Protocol: (§1) In order to confirm dependency of a LDH activity value on the β-NMN compound concentration, the β-NMN compound produced in Production Example 1 and β-NMN products 1 to 3 the same as those used in Test Example 1 were used for measurement of an enzyme activity of LDH at varied concentrations of the β-NMN in the R1 reagent.
(§2) The enzyme activity of LDH was measured in the same manner as in [Evaluation of enzymatic reactivity] of Test Example 1 except that the following R1 reagent and enzyme solution were used, to calculate a value of change in absorbance per minute (ΔmAbs/min). Regarding as 100% the activity value of LDH when the β-NMN compound of Production Example 1 was used at 200 mM, the relative activity values (%) in each NMN at each concentration are presented in FIGS. 4A to 4F (FIGS. 4A to 4C: R-LDH5 and FIGS. 4D and 4F: human LDH1). Note that, the measurement results are average values in the measurement performed three times.
(§3) (The purity of the β-NMN in a measurement sample was assumed to be 100%. Also, the β-NMN was dissolved in a 100 mM sodium carbonate solution in advance.)
An enzyme solution was prepared so that the LDH was to be 45 U/mL as a final concentration in a reaction liquid.

[5] = molecular target: R-LDH5 (lactate dehydrogenase, SEQ ID NO: 1) (Oryctolagus cuniculus, UniProt P13491, L277I/T249S); assay: Dependency of LDH activity value on β-NMN compound concentration, R-LDH5 (Test Example 4); assay type: biochemical; conditions: R-LDH5 245 U/mL; for relative activity value of LDH, dependency on β-NMN concentration: 0-200 mM β-NMN in R1 reagent, compared with Production Example 1, FIGS. 4B, 4C
Protocol: as §1, §2, §3
An enzyme solution was prepared so that the LDH was to be 245 U/mL as a final concentration in a reaction liquid.

Chain of human lactate dehydrogenase (LDH) 1 (SEQ ID NO: 2) (P07195 whole entry): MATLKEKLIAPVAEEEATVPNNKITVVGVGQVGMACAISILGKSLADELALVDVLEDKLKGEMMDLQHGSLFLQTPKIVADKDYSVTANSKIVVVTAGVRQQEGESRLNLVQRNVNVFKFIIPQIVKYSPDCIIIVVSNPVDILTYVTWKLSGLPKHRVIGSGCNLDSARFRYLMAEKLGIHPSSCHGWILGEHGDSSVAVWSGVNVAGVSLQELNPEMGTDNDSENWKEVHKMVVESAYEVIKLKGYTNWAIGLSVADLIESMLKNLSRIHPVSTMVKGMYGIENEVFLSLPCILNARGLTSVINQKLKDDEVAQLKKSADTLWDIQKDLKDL

| SMILES | intracellular NAD content (HEK293 cells [1]) | cytotoxicity rate determined based on intra- and extracellular AST activities (HEK293 cells [2]) | Enzymatic reactivity (unit) [3] [unit] | relative activity value of LDH, dependency on β-NMN concentration [4] | enzymatic activity of LDH at a β-NMN concentration of 200 mM ([5]; 200 mM β-NMN in R1 reagent, FIG. 4A) | relative activity value of LDH, dependency on β-NMN concentration [5] |
| --- | --- | --- | --- | --- | --- | --- |
| NC(=O)c1ccc[n+]([C@@H]2O[C@H](COP(=O)([O-])O)[C@@H](O)[C@H]2O)c1 [Production Example 1, β-nicotinamide mononucleotide] | higher when the β-NMN compound of Production Example 1 was added than when the β-NMN compound of the β-NMN product 3 was added | lower when the β-NMN compound of Production Example 1 was added than when the β-NMN compound of the β-NMN product 3 was added | 39 | – | – | – |
| NC(=O)c1ccc[n+]([C@@H]2O[C@H](COP(=O)([O-])O)[C@@H](O)[C@H]2O)c1 [Production Example 2, β-nicotinamide mononucleotide] | – | – | 40 | – | – | – |
| NC(=O)c1ccc[n+]([C@@H]2O[C@H](COP(=O)([O-])O)[C@@H](O)[C@H]2O)c1 [Production Example 3, β-nicotinamide mononucleotide] | – | – | 38 | – | – | – |
| NC(=O)c1ccc[n+]([C@@H]2O[C@H](COP(=O)([O-])O)[C@@H](O)[C@H]2O)c1 [Production Example 4, β-nicotinamide mononucleotide] | – | – | 35 | – | – | – |
| NC(=O)c1ccc[n+]([C@@H]2O[C@H](COP(=O)([O-])O)[C@@H](O)[C@H]2O)c1 [β-NMN product 1, β-nicotinamide mononucleotide] | – | – | 23 | larger differences in the activity value from the β-NMN compound of Production Example 1 as the β-NMN concentration increased | could not be measured | – |
| NC(=O)c1ccc[n+]([C@@H]2O[C@H](COP(=O)([O-])O)[C@@H](O)[C@H]2O)c1 [β-NMN product 2, β-nicotinamide mononucleotide] | – | – | 27 | larger differences in the activity value from the β-NMN compound of Production Example 1 as the β-NMN concentration increased | – | the difference in the activity value from the β-NMN compound of Production Example 1 became larger as the β-NMN concentration increased |
| NC(=O)c1ccc[n+]([C@@H]2O[C@H](COP(=O)([O-])O)[C@@H](O)[C@H]2O)c1 [β-NMN product 3, β-nicotinamide mononucleotide] | – | – | 26 | larger differences in the activity value from the β-NMN compound of Production Example 1 as the β-NMN concentration increased | – | the difference in the activity value from the β-NMN compound of Production Example 1 became larger as the β-NMN concentration increased |
